Results reported in US20110002843A1, “METHOD OF DETECTING MYOCARDIAL DYSFUNCTION IN PATIENTS HAVING A HISTORY OF ASTHMA OR BRONCHOSPASM” (priority 2005, published 2011).

Columns and labels:
A1 adenosine receptor = target: T1, A1 adenosine receptor (Cavia porcellus, UniProt P47745); parameters: a Langendorff guinea pig heart preparation; from tissue; host or cells: isolated perfused guinea pig heart (Langendorff); conditions: heart paced at 260 beats/min; data of U.S. Pat. No. 5,278,150; read-out: EC50—SQPR (A1); cited from earlier work
T1 sequence (P47745 1-326): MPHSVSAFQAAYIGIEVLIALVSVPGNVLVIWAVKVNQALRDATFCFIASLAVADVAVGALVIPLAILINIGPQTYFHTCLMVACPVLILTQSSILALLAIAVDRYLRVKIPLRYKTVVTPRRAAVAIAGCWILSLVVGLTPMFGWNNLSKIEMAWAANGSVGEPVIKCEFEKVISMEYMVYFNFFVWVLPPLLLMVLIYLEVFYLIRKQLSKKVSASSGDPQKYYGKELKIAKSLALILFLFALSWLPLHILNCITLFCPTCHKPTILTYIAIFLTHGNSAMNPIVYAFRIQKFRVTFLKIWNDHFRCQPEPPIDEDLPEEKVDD

A2A adenosine receptor [1] = target: T2, A2A adenosine receptor (Cavia porcellus, UniProt P46616); test: Langendorff guinea pig heart preparation, coronary vasodilation (coronary flow); conditions: quotient EC50-SQPR / EC50-CF
T2 sequence (P46616 whole entry, the tested form may be a part): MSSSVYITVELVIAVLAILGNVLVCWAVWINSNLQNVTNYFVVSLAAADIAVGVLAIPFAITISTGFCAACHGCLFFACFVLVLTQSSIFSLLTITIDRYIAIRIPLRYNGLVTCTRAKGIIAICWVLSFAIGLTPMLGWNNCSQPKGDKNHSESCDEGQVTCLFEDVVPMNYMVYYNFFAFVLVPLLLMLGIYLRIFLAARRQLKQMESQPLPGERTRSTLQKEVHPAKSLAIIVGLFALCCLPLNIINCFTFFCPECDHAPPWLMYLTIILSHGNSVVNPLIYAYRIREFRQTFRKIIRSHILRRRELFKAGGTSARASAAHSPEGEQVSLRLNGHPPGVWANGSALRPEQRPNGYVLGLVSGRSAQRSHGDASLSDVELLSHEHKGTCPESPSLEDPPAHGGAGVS
Procedure: The A1/A2A selectivity in Table 1 was calculated as the quotient of the EC50 of stimulus-QRS prolongation divided by the EC50 of coronary vasodilation.

A2A adenosine receptor [2] = target: T2, A2A adenosine receptor; parameters: a Langendorff guinea pig heart preparation; from tissue; host or cells: isolated perfused guinea pig heart (Langendorff), coronary vasculature; conditions: heart paced at 260 beats/min; data of U.S. Pat. No. 5,278,150; read-out: EC50—CF (A2A); cited from earlier work
[3] = Dose-selection study of coronary hyperemia (CBFV by Doppler guide wire) in non-asthmatic patients at cardiac catheterization; conditions: intracoronary bolus injections before binodenoson
Procedure: Coronary blood flow velocity reserve (CBFVR) was established by intracoronary (IC) bolus injections of adenosine just prior to administration of binodenoson to allow a direct comparison of the magnitude of responses.
Patients presenting for cardiac catheterization were screened for eligibility and provided informed consent prior to sedation. Final eligibility was determined by the investigator during diagnostic catheterization.
Following completion of the diagnostic catheterization procedure and confirmation of all eligibility criteria, the Doppler guide wire was introduced into an accessible coronary artery and manipulated until a stable signal was obtained.
Drug administration: All usual catheterization procedural medications including IC nitroglycerin, heparin, anxiolytics and analgesics, were allowed. […] Binodenoson doses were then introduced into a peripheral vein via an indwelling catheter.
Measurements: Coronary blood flow velocity (CBFV) was measured as continuous pulsatile (systolic and diastolic) velocity (cm/sec) with the Doppler guide wire introduced via a guiding catheter. HR was derived from the ECG signal. SBP and diastolic blood pressure (DBP) were recorded directly from the catheter sheath. For each IC adenosine injection, CBFVR was calculated by dividing the peak post-injection CBFV value by the respective baseline CBFV value. Each patient's maximal calculated CBFVR was used as a benchmark to which CBFV responses to binodenoson were compared. For each binodenoson dose, baseline CBFV (post-IC adenosine), peak CBFV, time following dose start time to achieve peak CBFV and percents of CBFVR (calculated as the ratio of CBFV change from baseline following binodenoson administration vs CBFVR) at each point were calculated. Rate pressure product (RPP) and coronary vascular resistance (CVR) were derived at each time point (see formulas in Table 10). […] Vital signs were measured again approximately 3 to 4 hours after dosing or prior to hospital discharge. Patients returned for a follow-up visit 2 to 4 days following catheterization that included vital signs, an abbreviated physical examination, a 12-lead ECG, blood chemistry and hematology assessments and an assessment of any late-emerging adverse events.
Adverse events were monitored throughout the study.
Statistical analyses: All pharmacodynamic and safety data were analyzed using the intent-to-treat (ITT) population, which included all patients who received any amount of study drug. A paired t test was used to assess the significance of within-treatment differences (peak vs baseline) in CBFV, vital signs and calculated CVR and RPP; repeated comparisons were corrected using the Bonferroni-Holm method. The statistical significance of differences among treatment groups was evaluated using an analysis of variance (ANOVA) model that included treatment and investigator interactions.

| SMILES | A1/A2A Selectivity (A2A adenosine receptor [1]) | EC50 (A1 adenosine receptor) [µM] | EC50 (A2A adenosine receptor [2]) [µM] | other results |
| --- | --- | --- | --- | --- |
| Nc1nc(N/N=C/C2CC=CCC2)nc2c1ncn2[C@@H]1O[C@H](CO)[C@@H](O)[C@H]1O (stereo in doubt) [B, 2-{2-[(Cyclohex-3-enyl)methylene]hydrazino}adenosine] |  | 13.8 |  |  |
| CC(C)CCC=NNc1nc(N)c2ncn([C@@H]3O[C@H](CO)[C@@H](O)[C@H]3O)c2n1 [C, 2-[2-(4-methylpentylidene)hydrazino]adenosine] | 44,700 |  |  |  |
| Nc1ncnc2c1ncn2[C@@H]1O[C@H](CO)[C@@H](O)[C@H]1O [Compare A, Adenosine, reference compound] |  |  |  | effect on CBFV [3]: transient increases; effects on SBP, DBP, or HR [3]: no consistent effects |
| Nc1nc(N)c2ncn([C@@H]3O[C@H](CO)[C@@H](O)[C@H]3O)c2n1 [Compare B, 2-Amino-adenosine, reference compound] | 50 |  | 0.22 |  |
| NNc1nc(N)c2ncn([C@@H]3O[C@H](CO)[C@@H](O)[C@H]3O)c2n1 [Compare C, 2-Hydrazino-adenosine, reference compound] | 250 |  |  |  |
| CCCCC(CC)CC=NNc1nc(N)c2ncn([C@@H]3O[C@H](CO)[C@@H](O)[C@H]3O)c2n1 (some centres unmarked) [D, 2-[2-(3-ethylheptylidene)hydrazino]adenosine] |  | 9.77 |  |  |
| CCCC(CCC)CCC=NNc1nc(N)c2ncn([C@@H]3O[C@H](CO)[C@@H](O)[C@H]3O)c2n1 [G, 2-[2-(4-propylheptylidene)hydrazino]adenosine] | 37,200 | 66.1 | 0.00178 |  |
| Cc1ccc(C=NNc2nc(N)c3ncn(C4OC(CO)C(O)C4O)c3n2)cc1 (centres unmarked) [K, 2-[2-(4-Methylbenzylidine) hydrazino]adenosine] |  | 39.8 |  |  |

The next lines start with results.

| A1/A2A Selectivity (A2A adenosine receptor [1]) | SMILES | EC50 (A1 adenosine receptor) [µM] | EC50 (A2A adenosine receptor [2]) [µM] | other results |
| --- | --- | --- | --- | --- |
| 36,300 | Nc1nc(N/N=C/c2ccccc2)nc2c1ncn2[C@@H]1O[C@H](CO)[C@@H](O)[C@H]1O (stereo in doubt) [I, 2-[2-(Benzylidene) hydrazino]adenosine] | 83.2 | 0.00229 |  |
| 38,000 | CCCCCC=NNc1nc(N)c2ncn([C@@H]3O[C@H](CO)[C@@H](O)[C@H]3O)c2n1 [E, 2-[2-(hexylidene)hydrazino]adenosine] |  |  |  |
| 5,100 | Nc1nc(NN=Cc2ccc(F)cc2)nc2c1ncn2[C@@H]1O[C@H](CO)[C@@H](O)[C@H]1O [J, 2-[2-(4-Fluorobenzylidene) hydrazino]adenosine] |  |  |  |
| 3,800 | Cc1cccc(C=NNc2nc(N)c3ncn(C4OC(CO)C(O)C4O)c3n2)c1 (centres unmarked) [L, 2-[2-(3-Methylbenzylidine)hydrazino]adenosine] | 17 | 0.0044 |  |
